Measurements reported in patent US20260085049A1, “CRYSTAL FORM OF ERGOTHIONEINE” (NANJING NUTRABUILDING BIO-TECH CO., LTD., priority 2023, published 2026).

Key:
[1] = Analysis and comparison of properties: hygroscopicity; type: physicochemical; details: solid forms prepared from crude ergothioneine
Method: (§1) X-ray diffraction (XRD), differential scanning calorimetry (DSC), elemental analysis, particle size analysis, quantitative nuclear magnetic resonance (NMR), Raman spectroscopy, infrared spectroscopy (IR), TGA, IPC-MS, DVS and other tests were carried out on the crystal forms prepared in the Examples.
(§2) Using crude ergothioneine as raw material, three crystal forms A, B and C were prepared respectively, and their properties were compared with those of amorphous ergothioneine.

[2] = Analysis and comparison of properties: moisture; type: physicochemical; details: solid forms prepared from crude ergothioneine
Method: as §1, §2

[3] = listed as amorphous ergothioneine

Structure (SMILES)	Hygroscopicity [1]	Hygroscopicity [1, 3]	Moisture (%) [2] [%]	Moisture (%) [2, 3] [%]
C[N+](C)(C)[C@@H](Cc1c[nH]c(=S)[nH]1)C(=O)[O-] [Amorphous, ergothioneine]	Easily	strong hygroscopicity	1.29	1.29
C[N+](C)(C)[C@@H](Cc1c[nH]c(=S)[nH]1)C(=O)[O-] [Crystal form A, ergothioneine]	Stable	–	0.07	–
C[N+](C)(C)[C@@H](Cc1c[nH]c(=S)[nH]1)C(=O)[O-] [Crystal form B, ergothioneine]	Stable	–	0.10	–
C[N+](C)(C)[C@@H](Cc1c[nH]c(=S)[nH]1)C(=O)[O-] [Crystal form C, ergothioneine]	Stable	–	0.09	–
